Molecular target: T1, human NEP (Homo sapiens, UniProt P08473)
T1 construct: purchased R&D Systems, Minneapolis, Minn; 1182-ZN
Experiment: In vitro enzyme inhibition assay, inhibitor potency at human NEP (Assay 1)
Assay type: biochemical
Settings: recombinant human NEP; fluorogenic peptide substrate 10 μM; 37° C.; values given as ranges
Protocol: The inhibitory activities of compounds at human and rat neprilysin (EC 3.4.24.11; NEP) and human angiotensin converting enzyme (ACE) were determined using in vitro assays as described below.
Recombinant human NEP and recombinant human ACE were obtained commercially (R&D Systems, Minneapolis, Minn., catalog numbers 1182-ZN and 929-ZN, respectively). The fluorogenic peptide substrate Mca-D-Arg-Arg-Leu-Dap-(Dnp)-OH (Medeiros et al. (1997) Braz. J. Med. Biol. Res. 30:1157-62; Anaspec, San Jose, Calif.) and Abz-Phe-Arg-Lys(Dnp)-Pro-OH (Araujo et al. (2000) Biochemistry 39:8519-8525; Bachem, Torrance, Calif.) were used in the NEP and ACE assays respectively.
The assays were performed in 384-well white opaque plates at 37° C. using the fluorogenic peptide substrates at a concentration of 10 μM in Assay Buffer (NEP: 50 mM HEPES, pH 7.5, 100 mM NaCl, 0.01% polyethylene glycol sorbitan monolaurate (Tween-20), 10 μM ZnSO4; ACE: 50 mM HEPES, pH 7.5, 100 mM NaCl, 0.01% Tween-20, 1 μM ZnSO4).
Test compounds were assayed over the range of concentrations from […] to 20 μM. Test compounds were added to the enzymes and incubated for 30 minute at 37° C. prior to initiating the reaction by the addition of substrate. Reactions were terminated after 20 minutes of incubation at 37° C. by the addition of glacial acetic acid to a final concentration of 3.6% (v/v).
Plates were read on a fluorometer with excitation and emission wavelengths set to 320 nm and 405 nm, respectively. Inhibition constants were obtained by nonlinear regression of the data using the equation (GraphPad Software, Inc., San Diego, Calif.): ν=ν0/[1+(I/K′)] where ν is the reaction rate, ν0 is the uninhibited reaction rate, I is the inhibitor concentration and K′ is the apparent inhibition constant.
Compounds of the invention were tested in this assay and found to have pKi values at human NEP as follows.

T1 sequence (P08473 52-750 limits assumed): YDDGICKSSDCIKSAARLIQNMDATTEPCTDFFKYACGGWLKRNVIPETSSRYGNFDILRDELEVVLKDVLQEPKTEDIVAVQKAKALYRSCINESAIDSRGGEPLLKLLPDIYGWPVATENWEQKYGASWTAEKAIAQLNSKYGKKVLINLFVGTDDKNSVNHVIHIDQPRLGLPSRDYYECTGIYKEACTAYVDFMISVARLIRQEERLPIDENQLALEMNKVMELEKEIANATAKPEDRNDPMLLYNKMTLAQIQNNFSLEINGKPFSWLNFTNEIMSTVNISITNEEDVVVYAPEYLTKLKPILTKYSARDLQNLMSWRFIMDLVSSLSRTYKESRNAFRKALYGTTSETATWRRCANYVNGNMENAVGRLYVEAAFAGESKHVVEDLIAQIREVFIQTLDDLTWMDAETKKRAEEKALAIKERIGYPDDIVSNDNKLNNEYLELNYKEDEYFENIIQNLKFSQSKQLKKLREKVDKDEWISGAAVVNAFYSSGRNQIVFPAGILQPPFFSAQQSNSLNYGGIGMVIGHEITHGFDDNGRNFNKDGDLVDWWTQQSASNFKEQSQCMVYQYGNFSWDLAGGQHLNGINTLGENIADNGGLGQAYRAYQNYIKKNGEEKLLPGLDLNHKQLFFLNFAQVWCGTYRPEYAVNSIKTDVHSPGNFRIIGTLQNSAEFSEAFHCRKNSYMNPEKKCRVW

Row | SMILES | Ki | pKi
1 | O=C(NC1CCCC1)C(=O)N[C@H](Cc1ccc(-c2cccc(Cl)c2)cc1)C[C@@H](O)C(=O)O [Example 4-1, (2R,4R)-5-(3′-Chlorobiphenyl-4-yl)-4-(cyclopentylaminooxalylamino)-2-hydroxypentanoic acid] | 10 to 31.6 nM | –
2 | O=C(Nc1ccc(Br)nc1)C(=O)N[C@H](Cc1ccc(-c2cccc(Cl)c2)cc1)C[C@@H](O)C(=O)O [Example 4-2, (2R,4R)-4-[(6-Bromopyridin-3-ylaminooxalyl)amino]-5-(3′-chlorobiphenyl-4-yl)-2-hydroxypentanoic acid] | 10 to 31.6 nM | –
3 | O=C(Nc1ccncc1)C(=O)N[C@H](Cc1ccc(-c2cccc(Cl)c2)cc1)C[C@@H](O)C(=O)O [Example 4-3, (2R,4R)-5-(3′-Chlorobiphenyl-4-yl)-2-hydroxy-4-[(pyridin-4-ylaminooxalyl)-amino]-pentanoic acid] | 10 to 31.6 nM | –
4 | O=C(NOCc1ccccc1)C(=O)N[C@H](Cc1ccc(-c2cccc(Cl)c2)cc1)C[C@@H](O)C(=O)O [Example 4-5, (2R,4R)-4-(Benzyloxyaminooxalylamino)-5-(3′-chlorobiphenyl-4-yl)-2-hydroxy-pentanoic acid] | 10 to 31.6 nM | –
5 | O=C(N[C@H](Cc1ccc(-c2cccc(Cl)c2)cc1)C[C@@H](O)C(=O)O)C(=O)NN1CCOCC1 [Example 4-8, (2R,4R)-5-(3′-Chlorobiphenyl-4-yl)-2-hydroxy-4-[(morpholin-4-ylaminooxalyl)-amino]pentanoic acid] | 10 to 31.6 nM | –
6 | O=C(N[C@H](Cc1ccc(-c2cccc(Cl)c2)cc1)C[C@@H](O)C(=O)O)C(=O)N(O)c1ccccc1 [Example 4-9, (2R,4R)-5-(3′-Chlorobiphenyl-4-yl)-2-hydroxy-4-[(hydroxyphenylaminooxalyl)-amino]pentanoic acid] | – | 8.0-9.0
7 | CN(O)C(=O)C(=O)N[C@H](Cc1ccc(-c2cccc(Cl)c2)cc1)C[C@@H](O)C(=O)O [Example 4-10, (2R,4R)-5-(3′-Chlorobiphenyl-4-yl)-2-hydroxy-4-[(hydroxymethylaminooxalyl)-amino]pentanoic acid] | – | 7.5-8.0
8 | CN(C)C(=O)C(=O)N[C@H](Cc1ccc(-c2cccc(Cl)c2)cc1)C[C@@H](O)C(=O)O [Example 4-11, (2R,4R)-5-(3′-Chlorobiphenyl-4-yl)-4-(dimethylaminooxalylamino)-2-hydroxy-pentanoic acid] | 10 to 31.6 nM | –
9 | O=C(N[C@H](Cc1ccc(-c2cccc(Cl)c2)cc1)C[C@@H](O)C(=O)O)C(=O)N1CC(F)(F)C1 [Example 4-14, (2R,4R)-5-(3′-Chlorobiphenyl-4-yl)-4-[2-(3,3-difluoroazetidin-1-yl)-2-oxo-acetylamino]-2-hydroxypentanoic acid] | 10 to 31.6 nM | –
10 | NC(=O)C1CCN(C(=O)C(=O)N[C@H](Cc2ccc(-c3cccc(Cl)c3)cc2)C[C@@H](O)C(=O)O)C1 (stereo partly drawn) [Example 4-17, (2R,4R)-4-[2-(3-Carbamoylpyrrolidin-1-yl)-2-oxo-acetylamino]-5-(3′-chloro-biphenyl-4-yl)-2-hydroxypentanoic acid] | 10 to 31.6 nM | –
11 | COCC1CCN(C(=O)C(=O)N[C@H](Cc2ccc(-c3cccc(Cl)c3)cc2)C[C@@H](O)C(=O)O)CC1 [Example 4-19, (2R,4R)-5-(3′-Chlorobiphenyl-4-yl)-2-hydroxy-4-[2-(4-methoxymethyl-piperidin-1-yl)-2-oxo-acetylamino]pentanoic acid] | 10 to 31.6 nM | –
12 | O=C(N[C@H](Cc1ccc(-c2cccc(Cl)c2)cc1)C[C@@H](O)C(=O)O)C(=O)N1CCC[C@@H](O)C1 [Example 4-21, (2R,4R)-5-(3′-Chlorobiphenyl-4-yl)-2-hydroxy-4-[2-((R)-3-hydroxy-piperidin-1-yl)-2-oxo-acetylamino]pentanoic acid] | 1 to 10 nM | –
13 | CC1(O)CCN(C(=O)C(=O)N[C@H](Cc2ccc(-c3cccc(Cl)c3)cc2)C[C@@H](O)C(=O)O)CC1 [Example 4-22, (2R,4R)-5-(3′-Chlorobiphenyl-4-yl)-2-hydroxy-4-[2-(4-hydroxy-4-methyl-piperidin-1-yl)-2-oxo-acetylamino]pentanoic acid] | 1 to 10 nM | –
14 | O=C(N[C@H](Cc1ccc(-c2cccc(Cl)c2)cc1)C[C@@H](O)C(=O)O)C(=O)N1CCC(c2ccncc2)CC1 [Example 4-23, (2R,4R)-5-(3′-Chlorobiphenyl-4-yl)-2-hydroxy-4-[2-oxo-2-(3,4,5,6-tetrahydro-2H-[4,4′]bipyridinyl-1-yl)-acetylamino]pentanoic acid] | 10 to 31.6 nM | –
15 | O=C(N[C@H](Cc1ccc(-c2cccc(Cl)c2)cc1)C[C@@H](O)C(=O)O)C(=O)N1CCC(CCO)CC1 [Example 4-24, (2R,4R)-5-(3′-Chlorobiphenyl-4-yl)-2-hydroxy-4-{2-[4-(2-hydroxyethyl)-piperidin-1-yl]-2-oxo-acetylamino}pentanoic acid] | 1 to 10 nM | –

Continued, values first:

Row | Ki | pKi | SMILES
16 | 1 to 10 nM | – | CCC(=O)C(=O)N[C@H](Cc1ccc(-c2cccc(Cl)c2)cc1)C[C@@H](O)C(=O)O [Example 1, (2R,4R)-5-(3′-Chlorobiphenyl-4-yl)-2-hydroxy-4-(2-oxobutyrylamino)pentanoic Acid]
17 | 1 to 10 nM | – | CC(C)CC(=O)C(=O)N[C@H](Cc1ccc(-c2cccc(Cl)c2)cc1)C[C@@H](O)C(=O)O [Example 2-1, (2R,4R)-5-(3′-Chloro-biphenyl-4-yl)-2-hydroxy-4-(4-methyl-2-oxo-pentanoylamino)-pentanoic acid]
18 | 1 to 10 nM | – | O=C(Cc1ccccc1)C(=O)N[C@H](Cc1ccc(-c2cccc(Cl)c2)cc1)C[C@@H](O)C(=O)O [Example 2-2, (2R,4R)-5-(3′-Chloro-biphenyl-4-yl)-2-hydroxy-4-(2-oxo-3-phenyl-propionylamino)-pentanoic acid]
19 | ≤ 1 nM | – | O=C(N[C@H](Cc1ccc(-c2cccc(Cl)c2)cc1)C[C@@H](O)C(=O)O)C(=O)N1CCC[C@H]1CO [Example 3, (2R,4R)-5-(3′-Chlorobiphenyl-4-yl)-2-hydroxy-4-[2-((S)-2-hydroxymethylpyrrolidin-1-yl)-2-oxo-acetylamino]pentanoic Acid]
20 | 1 to 10 nM | – | Cc1ccncc1NC(=O)C(=O)N[C@H](Cc1ccc(-c2cccc(Cl)c2)cc1)C[C@@H](O)C(=O)O [Example 4-4, (2R,4R)-5-(3′-Chlorobiphenyl-4-yl)-2-hydroxy-4-[(4-methylpyridin-3-ylaminooxalyl)amino]pentanoic acid]
21 | 1 to 10 nM | – | CONC(=O)C(=O)N[C@H](Cc1ccc(-c2cccc(Cl)c2)cc1)C[C@@H](O)C(=O)O [Example 4-6, (2R,4R)-5-(3′-Chlorobiphenyl-4-yl)-2-hydroxy-4-(methoxyaminooxalylamino)-pentanoic acid]
22 | 1 to 10 nM | – | O=C(NC1CONC1=O)C(=O)N[C@H](Cc1ccc(-c2cccc(Cl)c2)cc1)C[C@@H](O)C(=O)O (stereo partly drawn) [Example 4-7, (2R,4R)-5-(3′-Chlorobiphenyl-4-yl)-2-hydroxy-4-[(3-oxo-isoxazolidin-4-ylaminooxalyl)-amino]pentanoic acid]
23 | 1 to 10 nM | – | CON(C)C(=O)C(=O)N[C@H](Cc1ccc(-c2cccc(Cl)c2)cc1)C[C@@H](O)C(=O)O [Example 4-12, (2R,4R)-5-(3′-Chlorobiphenyl-4-yl)-2-hydroxy-4-[(methoxymethylaminooxalyl)-amino]pentanoic acid]
24 | 1 to 10 nM | – | O=C(N[C@H](Cc1ccc(-c2cccc(Cl)c2)cc1)C[C@@H](O)C(=O)O)C(=O)N1CC(O)C1 [Example 4-13, (2R,4R)-5-(3′-Chlorobiphenyl-4-yl)-2-hydroxy-4-[2-(3-hydroxyazetidin-1-yl)-2-oxo-acetylamino]pentanoic acid]
25 | 1 to 10 nM | – | CS(=O)(=O)C1CCN(C(=O)C(=O)N[C@H](Cc2ccc(-c3cccc(Cl)c3)cc2)C[C@@H](O)C(=O)O)C1 (stereo partly drawn) [Example 4-15, (2R,4R)-5-(3′-Chlorobiphenyl-4-yl)-2-hydroxy-4-[2-(3-methanesulfonyl-pyrrolidin-1-yl)-2-oxo-acetylamino]pentanoic acid]
26 | 1 to 10 nM | – | O=C(N[C@H](Cc1ccc(-c2cccc(Cl)c2)cc1)C[C@@H](O)C(=O)O)C(=O)N1CCC[C@@H]1CO [Example 4-16, (2R,4R)-5-(3′-Chlorobiphenyl-4-yl)-2-hydroxy-4-[2-((R)-2-hydroxymethyl-pyrrolidin-1-yl)-2-oxo-acetylamino]pentanoic acid]
27 | ≤ 1 nM | – | O=C(N[C@H](Cc1ccc(-c2cccc(Cl)c2)cc1)C[C@@H](O)C(=O)O)C(=O)N1CCC(O)CC1 [Example 4-18, (2R,4R)-5-(3′-Chlorobiphenyl-4-yl)-2-hydroxy-4-[2-(4-hydroxy-piperidin-1-yl)-2-oxo-acetylamino]pentanoic acid]
28 | ≤ 1 nM | – | O=C(N[C@H](Cc1ccc(-c2cccc(Cl)c2)cc1)C[C@@H](O)C(=O)O)C(=O)N1CCC(CO)CC1 [Example 4-20, (2R,4R)-5-(3′-Chlorobiphenyl-4-yl)-2-hydroxy-4-[2-(4-hydroxymethyl-piperidin-1-yl)-2-oxo-acetylamino]pentanoic acid]

From patent publication US10053417B2, “Neprilysin inhibitors” (THERAVANCE BIOPHARMA R&D IP, LLC, priority 2013, dated 2018)
